Measurements from patent publication US8420614B2, “Compositions and methods for inhibiting or reversing fibrotic disorders” (Albany Medical College, priority 2007, dated 2013).

What was measured:
Type in all cases: cell-based, human
[1] = test system: NADF; experiment: Floating collagen lattice contraction, NADF; conditions: TGF-β1 10 ng/ml; floating collagen lattice three days
Experimental: (§1) Before preparing the gels, 5 ml of BSA (Sigma) solution (0.1% BSA in PBS, filter sterilized) was pipetted into each well of a six-well plate, incubated at 37° C. for 1 hour. 1.4 ml of bovine dermal collagen Vitrogen (Cohesion, Palo Alto, Calif.) was mixed with 0.4 ml of 5×DMEM in a 15 ml centrifuge tube cooled on ice. The pH was adjusted to a range of 7.2-7.5, using a sterile solution of 1N NaOH. The control and modified cells were trypsinized from a confluent tissue culture plate and 0.2 ml of the cell suspension (containing 5×10^5 cells) was added to the collagen solution, gently mixed and poured into a well of the six-well plate. Collagen lattices were allowed to gel for 60 minutes in a 5% CO2 atmosphere at 37° C. After 60 minutes, the collagen lattices were detached from the surface of the well by rimming the lattice with a sterile spatula and gently swirling the six-well plate. 2 ml of serum-free medium was added to each well. Plates were incubated in a 5% CO2 atmosphere at 37° C. To measure contraction, the tissue culture dishes were periodically placed on top of a transparent metric ruler on an opaque background, and the diameters of the lattices were recorded.

[2] = test system: cyclin A, cyclin D1, p21^cip1, p15^ink4b in NADF; experiment: Western blot of cell cycle proteins, NADF
Experimental: (§2) NADF and HTSF lysates were analyzed for protein expression by western blotting with the following primary antibodies at a concentration of 1:1000: cyclin D1, (BD-Biosciences; DCS-6, San Jose, Calif.), cyclin A, (Santa Cruz Biotech.; H 432, Santa Cruz, Calif.), p21^cip1 (BD-Biosciences; sx-118, San Jose, Calif.), p15^ink4b (Cell Signaling, Danvers, Mass.), Hic-5 (BD Transduction, Franklin Lakes, N.J.), RhoGDI (Santa Cruz Biotech, Santa Cruz, Calif.), H2A (Cell Signaling, Danvers, Mass.) and ERK½ (Santa Cruz Biotech, Santa Cruz, Calif.), Vinculin (Sigma Aldrich), SMCA (Sigma Aldrich), FN (Neomarkers), Collagen type I (Sigma Aldrich), Paxillin (Sigma Aldrich). Western blots were developed using SuperSignal chemiluminescent substrate (Pierce, Rockford, Ill.) and quantitated with a Fluor-S MultiImager and Quantity-One software (Bio-Rad, Hercules, Calif.). Membranes were stripped using Restore Stripping (Pierce, Rockford, Ill.) and reprobed (no more than once) with other antibodies.

[3] = test system: supermature focal adhesions in NADF; experiment: Focal adhesion measurements, NADF; conditions: TGF-β1 10 ng/ml for 5 days
Experimental: Cells were stained as previously described (Dabiri et al., 2006), with slight modification. Control or modified cells were cultured at 30% confluency in complete medium for 18 hours, then washed with Dulbecco's phosphate-buffered saline and serum-free medium was added, followed by 10 ng/ml of TGF-β1 or 20 ng/ml of anti-TGF-β1 (R&D Systems, Minneapolis, Minn.) where specified. Cells were allowed to incubate for 5 days. On the fifth day, cells were washed fixed, permeabilized, and blocked for 1 hour. Samples were then incubated sequentially with mAb against vinculin (1:400) (Sigma Chemical Co., St Louis, Mo.), and then with a mixture of goat anti-mouse Alexa Fluor 488 (1:1000) and TRITC-conjugated phalloidin (1:100). […] Images were captured with attached Cooke Sensicam digital camera and deconvolved using Slidebook 3.0.10.3 software (FFTW licensed from Massachusetts Institute of Technology, Cambridge, Mass.).
Focal adhesion measurements were performed as described previously (Dabiri et al., 2006). In brief, cells (n=20) were chosen that were not in contact with any other cell and were well spread. Images were observed using Olympus BX60 microscope equipped with an immersion oil objective (×60/1.25, phase) and captured as described above. Vinculin staining was measured for area (μm^2) of focal adhesion using Image Pro-Plus version 4.5.1.26 (Media Cybermatic, Silver Spring, Md.). […]

[4] = test system: HTSF; experiment: Floating collagen lattice contraction, HTSF; conditions: TGF-β1 10 ng/ml added to Hic-5 siRNA treated HTSF
Experimental: as §1

[5] = test system: collagen type I and FN in NADF; experiment: Western blot of ECM proteins, NADF; conditions: TGF-β1 10 ng/ml, 5 days
Experimental: as §2

[6] = test system: SMCA in HTSF; experiment: SMCA expression (western blot, immunostaining), HTSF; conditions: TGF-β1 10 ng/ml, 5 days
Experimental: as §2
(§3) Cells were stained as previously described (Dabiri et al., 2006), with slight modification. Control or modified cells were cultured at 30% confluency in complete medium for 18 hours, then washed with Dulbecco's phosphate-buffered saline and serum-free medium was added, followed by 10 ng/ml of TGF-β1 or 20 ng/ml of anti-TGF-β1 (R&D Systems, Minneapolis, Minn.) where specified. […]

[7] = test system: NADF; experiment: BrdU incorporation, NADF; conditions: 24 h BrdU pulse; TGF-β1 10 ng/ml
Experimental: HTSF (5×10^3 cells) or NADF (5×10^3 cells) were plated in serum free media (Dulbecco's […] 1:1, Hams F12 1:1, transferrin 5 μg/ml, insulin 5×10^−7M, ascorbate 0.2 mM, glutamine 1:100, penicillin-streptomycin 1:100) for 18 hrs in Labtek™ chambers (Nalge Nunc International, Naperville, Ill.) at 37° C. Cells were washed three times with Dulbecco's phosphate buffered saline (DPBS) (Gibco Invitrogen International, Carlsbad, Calif.) and to each well DMEM containing serum was added, 10 μg/ml of BrdU (Biodesign International, Saco, Me.), with or without the addition of 10 ng/ml of TGFβ1. In some wells anti-TGF-β (20 μg/ml) was also added as indicated. Cells were incubated (24 hrs), washed with DPBS, fixed with 3.7% formaldehyde (Sigma Chemical Co., St. Louis, Mo.) in DPBS (10 min), permeabilized with 0.5% Triton X-100 (5 min) (Sigma Chemical Co., St. Louis, Mo.), blocked (1 hr) with 2% bovine serum albumin (Sigma Chemical Co., St. Louis, Mo.) in PBS then DNAase (Promega, Madison, Wis.) treated for 30 min. […] Coverslips were mounted in Gelmount (Biomedia Corp., Biomedia Corp., Foster City, Calif.) and slides were analyzed on an Olympus BX60 microscope using 10× objective. […] The percent positive BrdU incorporation was determined by dividing the number of nuclei labeled with both BrdU (green) and Hoescht (blue) by the total number of nuclei (blue)×100.

[8] = test system: NADF; experiment: CyQUANT cell growth, NADF; conditions: serum-containing media; anti-TGF-β 20 μg/ml or TGF-β1 10 ng/ml
Experimental: (§4) All cells used in these studies were cultured (37° C., 5% CO2.) in serum-containing media which consisted of Dulbecco's modification of Eagle's Minimum Essential Medium, 10% fetal bovine serum and 1% penicillin-streptomycin (all of which were obtained from Gibco Invitrogen Corporation, Carlsbad, Calif.). NADF were purchased from Clonetics-Cambrex BioScience (Walkersville, Md.). HTSF were isolated from biopsies taken from hypertrophic scars resected therapeutically from pediatric patients at Shriner's Burn Hospital and Massachusetts General Hospital, (Boston, Mass.). Tissue was processed according to the protocol of Ronnov-Jessen and Peterson (1993) and as described in (Dabiri et al., 2006). All tissues were acquired anonymously under protocols approved by the relevant medical and ethical committees of the Shriner's Burn Center in accordance with the Declaration of Helsinki Principles and patients gave their written, informed consent.
(§5) Cell growth was measured using CyQUANT® Cell Proliferation Assay Kit (C-7026, Invitrogen, Carlsbad, Calif.). […] Plates were read on Spectra Max Gemini-EM (Molecular Devices, Sunnyvale, Calif.) with an excitation and emission spectrum 480 nm and 520 nm, respectively.

[9] = test system: HTSF; experiment: CyQUANT cell growth, HTSF; conditions: serum-containing media; anti-TGF-β 20 μg/ml or TGF-β1 10 ng/ml
Experimental: as §4, §5

[10] = test system: SMCA in NADF; experiment: SMCA expression (western blot, immunostaining), NADF; conditions: TGF-β1 10 ng/ml
Experimental: as §2, §3

[11] = test system: Hic-5; experiment: Western blot of Hic-5 expression, NADF; conditions: TGF-β1 10 ng/ml
Experimental: as §2
Either NADF (5×10^3 cells) or HTSF (5×10^3 cells) were cultured in DMEM plus serum for 24 hrs with either TGF-β1 (10 ng/ml) or anti-TGF-β1 (20 μg/ml) where indicated. […] Protein expression was analyzed by western blot, as described above. […]

TGF-β1: recombinant, active TGF-β1 added exogenously (R&D Systems)
decrease in collagen diameter by NADF [1]: 3 fold | cyclin A and cyclin D1 levels in NADF ([2]; 24 h, TGF-β1 10 ng/ml): decreased cyclin A and cyclin D1 levels | increase in p15^ink4b level in NADF compared to NADF without TGF-β1 ([2]; 24 h, TGF-β1 10 ng/ml): 5.25 fold | increase in p21^cip1 level in NADF compared to NADF without TGF-β1 ([2]; 24 h, TGF-β1 10 ng/ml): 2.5 fold | increase in expression of p15^ink4b in NADF ([2]; siRNA experiment, TGF-β1 10 ng/ml for 24 hrs, unaffected by knockdown of Hic-5): 4 fold | increase in the percentage of focal adhesions greater than 6 μm^2 in NADF [3]: ~10 fold | ability of Hic-5 knocked-down HTSF to contract collagen [4]: fully rescued the ability of HTSF to contract collagen | expression of collagen and FN in NADF [5]: significantly increased the expression of these ECM proteins | increase in the percentage of positive SMCA cells in HTSF in which Hic-5 was genetically ablated [6]: 5 fold | percent BrdU positive nuclei in NADF [7]: statistically significant decrease in the percent positive nuclei | NADF proliferation (increase in cell number by day 3) [8]: statistically significant decrease in proliferation | HTSF proliferation (increase in cell number by day 3) [9]: did not significantly alter the growth | increase in percent positive SMCA cells in NADF ([10]; 5 days): 7 fold | expression of SMCA and Hic-5 in NADF ([10]; serum free media five days): both SMCA and Hic-5 were upregulated | expression of Hic-5 in NADF ([11]; 24 h): significantly increased the expression of Hic-5 | expression of Hic-5 in the nucleus in NADF ([11]; subcellular fractionation): significantly increased the expression of Hic-5 in the nucleus
